Test results reported in publication PMC8179138, “Ligand design by targeting a binding site water” (Chemical Science, 2020).
Where two headings read alike, the source gives them in different places.

Tests used:
[1] = target: T1, human A3AR (Homo sapiens, UniProt P0DMS8); parameters: expressed in transfected cells; method as in Rodriguez et al.3; settings: ref Rodriguez et al.3; cited from earlier work
T1 sequence (P0DMS8 1-318): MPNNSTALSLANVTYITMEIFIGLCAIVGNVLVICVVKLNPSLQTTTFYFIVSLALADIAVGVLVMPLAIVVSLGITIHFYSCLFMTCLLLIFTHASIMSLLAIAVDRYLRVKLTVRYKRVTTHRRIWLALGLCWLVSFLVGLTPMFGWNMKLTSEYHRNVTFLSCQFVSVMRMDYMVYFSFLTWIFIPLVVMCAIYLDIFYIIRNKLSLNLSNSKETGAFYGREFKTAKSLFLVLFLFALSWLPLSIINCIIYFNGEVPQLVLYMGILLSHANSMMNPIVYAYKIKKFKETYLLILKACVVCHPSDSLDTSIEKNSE

[2] = target: T2, human A2AAR (Homo sapiens, UniProt P29274); parameters: expressed in transfected cells; settings: cited from earlier work
T2 sequence (P29274 whole entry): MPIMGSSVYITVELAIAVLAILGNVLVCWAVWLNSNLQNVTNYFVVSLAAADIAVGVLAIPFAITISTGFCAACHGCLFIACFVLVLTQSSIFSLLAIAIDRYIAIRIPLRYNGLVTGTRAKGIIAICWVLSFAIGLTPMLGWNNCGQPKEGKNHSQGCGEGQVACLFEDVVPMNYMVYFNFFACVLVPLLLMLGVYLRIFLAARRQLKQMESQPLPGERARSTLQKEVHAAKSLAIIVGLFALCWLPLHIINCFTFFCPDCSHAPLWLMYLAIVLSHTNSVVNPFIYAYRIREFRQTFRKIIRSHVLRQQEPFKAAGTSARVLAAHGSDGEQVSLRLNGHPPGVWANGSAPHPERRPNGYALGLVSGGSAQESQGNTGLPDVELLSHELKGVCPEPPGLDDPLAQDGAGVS

[3] = target: T3, hAR subtype A2A in HEK293 cells (Homo sapiens, UniProt P29274); assay: Functional cAMP assay, A2AAR; type: cell-based; settings: for Emax at 10 µM: HEK293, stimulation of cAMP production at 10 μM, n=3, read-out: Maximum efficacy A2A (% activation); for A2AAR agonist activity in words: Gs-mediated cAMP production
T3 construct: expressed in transfected cells
T3 sequence (P29274 whole entry): as above

[4] = target: T1, human A3AR; assay: Radioligand binding assay, A3AR
Experimental: (§1) using 8-[4-[[[[(2-aminoethyl)amino]carbonyl]methyl]oxy]phenyl]-1,3-dipropylxanthin e (XAC) at 10 µM for A1 and A2A and 100 µM for A2B and A3. Binding parameters were calculated using Prism 8 software (GraphPAD, San Diego, CA, USA). IC50 values obtained from competition curves were converted to Ki values using the Cheng–Prusoff equation23.
(§2) Data are express ed as mean ± standard error.

[5] = target: T4, human A1AR (Homo sapiens, UniProt P30542); assay: Radioligand binding assay, A1AR
T4 sequence (P30542 1-326): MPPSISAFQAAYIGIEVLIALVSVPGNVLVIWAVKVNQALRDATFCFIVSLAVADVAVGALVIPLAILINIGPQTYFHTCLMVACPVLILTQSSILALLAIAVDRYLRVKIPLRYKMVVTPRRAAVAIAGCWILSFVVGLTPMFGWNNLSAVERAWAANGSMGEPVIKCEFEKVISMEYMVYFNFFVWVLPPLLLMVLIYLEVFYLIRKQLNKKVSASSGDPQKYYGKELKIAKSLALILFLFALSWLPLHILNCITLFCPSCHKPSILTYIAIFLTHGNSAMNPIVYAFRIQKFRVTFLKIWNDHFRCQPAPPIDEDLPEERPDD
Experimental: as §1, §2

[6] = target: T5, human A2BAR (Homo sapiens, UniProt P29275); assay: Radioligand binding assay, A2BAR; settings: read-out: % Inhibition at 10µM A2B
T5 sequence (P29275 1-332): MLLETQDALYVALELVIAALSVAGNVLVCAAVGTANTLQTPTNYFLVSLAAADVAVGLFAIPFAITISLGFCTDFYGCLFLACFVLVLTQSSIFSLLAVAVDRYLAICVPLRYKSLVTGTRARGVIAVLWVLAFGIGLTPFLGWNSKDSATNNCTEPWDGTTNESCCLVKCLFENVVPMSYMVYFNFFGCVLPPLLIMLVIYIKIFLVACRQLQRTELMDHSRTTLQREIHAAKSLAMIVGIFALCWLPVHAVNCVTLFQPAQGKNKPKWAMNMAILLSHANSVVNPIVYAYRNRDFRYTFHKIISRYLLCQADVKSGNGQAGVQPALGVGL
Experimental: as §1, §2

[7] = target: T2, human A2AAR; assay: Radioligand binding assay, A2AAR; settings: for A2AAR activity class (Active/Inactive) in Fig. 2: summary of binding and functional data
Experimental: as §1, §2

[8] = target: T6, hAR subtype A2B in HEK293 cells (Homo sapiens, UniProt P29275); assay: Functional cAMP assay, A2BAR; type: cell-based
T6 construct: expressed in transfected cells
T6 sequence (P29275 1-332): T5 sequence (P29275 1-332)

[9] = target: T7, hAR subtype A3 in HEK293 cells (Homo sapiens, UniProt P0DMS8); assay: Functional cAMP assay, A3AR; type: cell-based
T7 construct: expressed in transfected cells
T7 sequence (P0DMS8 1-318): T1 sequence (P0DMS8 1-318)

[10] = target: T8, hAR subtype A1 in HEK293 cells (Homo sapiens, UniProt P30542); assay: Functional cAMP assay, A1AR; type: cell-based
T8 sequence (P30542 1-326): T4 sequence (P30542 1-326)

[11] = system: adenosine deaminase; assay: A2AAR activity in absence and presence of adenosine deaminase; type: in vitro ADME; settings: concluded qualitatively from A2AAR activity without and with adenosine deaminase
Experimental: For compounds 3 and 4, both binding and functional assays at the A2AAR were carried out (Fig. 2). Experiments were also performed for the A1, A2B, and A3 subtypes (Fig. S1 and Table S1 ^†).

For Nc1nccc2c1ncn2[C@@H]1O[C@H](CO)[C@@H](O)[C@H]1O [Compound 2, 3-deazaadenosine], the “% Inhibition at 10µM A3” value [1] is listed as 53 ± 11%, the “% Inhibition at 10µM A2A” value ([2]; 10 µM, ref Rodriguez et al.3) is listed as 24 ± 8% and the “A2AAR activity class (Active/Inactive) in Fig. 2” value ([2]; summary of binding and functional data) is listed as “Inactive”. The Ki ([2]; very low affinity) was 39 µM and the Emax at 10 µM [3] was 20 ± 4%.
For Cc1cnc(N)c2ncn(C3OC(CO)C(O)C3O)c12 (stereo not drawn) [Compound 3], the inhibition at 10 µM ([4]; read-out: % Inhibition at 10µM A3) was 50 ± 2%, the inhibition at 10 µM ([5]; read-out: % Inhibition at 10µM A1) was 48 ± 17% and the “A2AAR agonist activity in words” value [3] was “inactive”. The Emax at 10 µM [3] was 9 ± 1%, the inhibition at 10 µM [6] was 1 ± 1% and the “% Inhibition at 10µM A2A” value ([7]; 10 µM, radioligand binding, n=3) was “did not show significant displacement”. For the same molecule, the inhibition at 10 µM ([7]; read-out: % Inhibition at 10µM A2A) was 13 ± 1% and the “A2AAR activity class (Active/Inactive) in Fig. 2” value [7] was “Inactive”.
For Nc1ncc(CO)c2c1ncn2C1OC(CO)C(O)C1O (stereo not drawn) [Compound 4], the Ki [4] was 280 ± 27 nM, the “activation of A2BAR in words” value [8] was “not” and the Emax ([8]; cAMP, HEK293, n=3, read-out: Maximum efficacy A2B) was < 15%. The Ki [5] was 31 ± 4 nM, the “activation of A3 subtype in words” value [9] was “activated” and the EC50 ([9]; cAMP, HEK293, n=3) was 318 ± 66 nM. For the same molecule, the Emax ([9]; cAMP, HEK293, n=3, read-out: Maximum efficacy A3) was 97 ± 4%, the “A2AAR agonist activity in words” value [3] was “full agonist” and the Emax at 10 µM [3] was 99 ± 3%. The EC50 ([3]; cAMP production, HEK293, n=3) was 732 nM, the inhibition at 10 µM [6] was 29 ± 7% and the “activation of A1 subtype in words” value [10] was “activated”. The EC50 ([10]; cAMP, HEK293, n=3) was 180 ± 38 nM, the Emax ([10]; cAMP, HEK293, n=3, read-out: Maximum efficacy A1) was 101 ± 3% and the “resistance to degradation by adenosine deaminase” value [11] was “resistance”. For the same molecule, the Ki [7] was 103 nM and the “A2AAR activity class (Active/Inactive) in Fig. 2” value [7] was “Active”.
